Results from US20260007613A1, “LONG-ACTING LOW-TOXICITY NOVEL CATIONIC LIPID COMPOUNDS AND COMPOSITION THEREOF” (BEIJING YOUCAREKECHUANG PHARMACEUTICAL TECHNOLOGY CO., LTD., priority 2023, published 2026).

What was measured:
[1] = Particle size and polydispersity index (PDI) of lipid nanoparticles by dynamic light scattering; type: physicochemical; details: LNP formulation prepared from the cationic lipid, 25° C.
Method: The particle size and polydispersity index (PDI) were determined by dynamic light scattering using Malvern laser particle size analyzer.
10 μL of the liposome solution was weighed, diluted to 1 mL with RNase-free deionized water, and added to the sample pool. Each sample was measured in triplicate. The measurement conditions were: […] scattering angle, and 25° C.

293T cells [2] = experiment: Fluorescent detection of Fluc-mRNA (cell transfection efficiency of LNP formulations); type: cell-based; details: for Relative light unit (RLU): LNP formulation of Fluc-mRNA, 96-well plate, 24 hours; for Multiples (YK-305): RLU of YK-305 / RLU of the lipid of the line; for Multiples (YK-310): RLU of YK-310 / RLU of the lipid of the line; for Multiples (YK-312): RLU of YK-312 / RLU of the lipid of the line; for Multiples (YK-318): RLU of YK-318 / RLU of the lipid of the line; for Multiples (YK-318) / Multiples (YK-319): Tables 5, 7, 11; for Multiples (YK-319): RLU of YK-319 / RLU of the lipid of the line
Method: (§1) Cell recovery and passage: 293T cells were recovered, cultured in a culture dish, and passaged to the required number of cells.
(§2) Seeding plate: The cells in the culture dish were digested and counted. Cells were spread in a 96-well plate at 10,000 cells per well and in a 12-well plate at 150,000 cells per well. Cells were cultured overnight until the cells adhered to the wall.
(§3) Cell recovery and passage: the method was the same as in Example 3.
(§4) Seeding plate: the method was the same as in Example 3.
An LNP formulation containing […] of Fluc-mRNA (the carrier components of the LNP formulation were cationic lipid, neutral lipid, structured lipid and polymer-conjugated lipid with a molar ratio of 49:10:39.5:1.5, wherein the cationic lipid was listed in Table 1) was added to the cell culture medium of a 96-well plate, and further incubated for 24 hours. The corresponding reagent was added according to the instructions of the […] Luciferase Assay Kit, and the fluorescence expression intensity of each well was detected by an IVIS fluorescence detection system. This test verified the transfection efficiencies of LNP formulations in cells, see Tables 4-7 for specific test results.

female BALB/C mice = experiment: Live imaging in mice: protein expression of Fluc-mRNA delivered by LNP formulations; type: in vivo
Method: In addition, the protein expression and duration of mRNA in mice delivered by the cationic lipid delivery carriers designed were also verified.
The LNP formulation containing […] Fluc-mRNA was injected intramuscularly into female BALB/C mice aged 4 to 6 weeks old and weighed 17 to 19 g, and the mice were intraperitoneally injected with fluorescent imaging substrate at specific time points after administration (6 h, 24 h, 48 h and 7 d), where the mice were free to move for 5 minutes, and then the average radiation intensity (corresponding to fluorescence expression intensity) of the protein expression of the mRNA carried by the LNP in the mice was detected by the IVIS Spectrum small animal live imaging device.

293T cells [3] = experiment: Cell survival rate determination (CCK-8); type: cell-based; details: LNP formulation of Fluc-mRNA, 24 hours, CCK-8
Method: as §1, §2, §3, §4
An LNP formulation containing […] of Fluc-mRNA (the carrier components of the LNP formulation were cationic lipid, neutral lipid, structured lipid and polymer-conjugated lipid with a molar ratio of 49:10:39.5:1.5, wherein the cationic lipid was listed in Table 1) and the formulation of Lipofectamine 3000 were added to the cell culture medium of a 96-well plate, and further cultivated for 24 hours. 10 μL of CCK-8 solution was then added to each well, and the culture plate was incubated in an incubator for 1 hour. The absorbance at 450 nm was measured by a microplate reader.
Cell survival rate can represent the toxicity of cationic lipids to cells. The higher the cell survival rate, the lower the toxicity to cells.

[4] = 6 h after intramuscular injection
[5] = 24 h after intramuscular injection
[6] = 48 h after intramuscular injection
[7] = 7 d after intramuscular injection

SMILES | PDI (%) [1] [%] | Particle size (nm) [1] [nm] | Relative light unit (RLU) (293T cells [2]) | Multiples (YK-305) (293T cells [2]) | Multiples (YK-310) (293T cells [2]) | Multiples (YK-312) (293T cells [2]) | Multiples (YK-318) (293T cells [2]) | Multiples (YK-319) (293T cells [2]) | Ratio relative to SM-102 (293T cells [2]; RLU of the lipid / RLU of SM-102, times that of SM-102) | average radiation intensity (female BALB/C mice; [4]) | average radiation intensity (female BALB/C mice; [5]) | average radiation intensity (female BALB/C mice; [6]) | average radiation intensity (female BALB/C mice; [7]) | Cell survival rate (%) (293T cells [3])
CCCCCCCCCCOC(=O)CCCN(CCO)CCCCCC(=O)OCC(CCCCCCCC)CCCCCCCC [YK-009, reference compound] | 18.1 | 192 | 5118942 | 5.35 | 5.04 | 3.94 | 2.19 | 4.78 | 3.19 | 1004580 | 754120 | 110140 | 9984 | 72.55
CCCCCCCCCCOC(=O)CCCN(CCCCCC(=O)OCCC(CCCCCC)CCCCCC)C[C@H](O)CN(C)CCO [YK-302] | 13.4 | 186 | 27778 | 936.71 | 928.69 | 725.34 | 402.84 | 880.83 |  | 14580 | 8956 | 4025 | 884 | 16.43
